Source: patent US12344600B2, “c-Myc mRNA translation modulators and uses thereof in the treatment of cancer” (Anima Biotech Inc., priority 2022, dated 2025)

test system: c-Myc; assay: c-Myc immunofluorescence assay; type: cell-based, human; settings: A549 cells, 24 hours, anti-c-Myc immunofluorescence
In short: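 A549 NSCLC cells grown 48 h, then treated 24 h with increasing compound concentrations; fixed in 4% paraformaldehyde, stained with anti-c-Myc antibody plus fluorescent secondary and DAPI. Per-cell c-Myc fluorescence quantified by high-content imaging at 20×; dose-response fitted by logistic regression to give EC50.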

Row | SMILES | Myc Efficacy (−LogEC50)
1 | COc1ccc(-c2noc(N3CCC(C(=O)NCC4CCN(Cc5csc(C)n5)C4)CC3)n2)cc1 (centres unmarked) [Compound 383, 1-(3-(4-methoxyphenyl)-1,2,4-oxadiazol-5-yl)-N-((1-((2-methylthiazol-4-yl)methyl)pyrrolidin-3-yl)methyl)piperidine-4-carboxamide] | ++ (++ ≥5 and <6)
2 | COc1ccc(-c2noc(N3CCC(C(=O)NCC4CCN(Cc5nc(C)cs5)C4)CC3)n2)cc1 (centres unmarked) [Compound 384, 1-(3-(4-methoxyphenyl)-1,2,4-oxadiazol-5-yl)-N-((1-((4-methylthiazol-2-yl)methyl)pyrrolidin-3-yl)methyl)piperidine-4-carboxamide] | ++ (++ ≥5 and <6)
3 | COc1ccc(-c2noc(N3CCC(C(=O)NCC4CCN(Cc5ccc(C)s5)C4)CC3)n2)cc1 (centres unmarked) [Compound 385, 1-(3-(4-methoxyphenyl)-1,2,4-oxadiazol-5-yl)-N-((1-((5-methylthiophen-2-yl)methyl)pyrrolidin-3-yl)methyl)piperidine-4-carboxamide] | ++ (++ ≥5 and <6)
4 | CCCN1CCC(CNC(=O)C2CCN(c3nc(-c4ccc(OC)cc4)no3)CC2)C1 (centres unmarked) [Compound 386, 1-(3-(4-methoxyphenyl)-1,2,4-oxadiazol-5-yl)-N-((1-propylpyrrolidin-3-yl)methyl)piperidine-4-carboxamide] | + (+ >3 and <5)
5 | COc1ccc(-c2noc(N3CCC(C(=O)NCC4CCN(Cc5cccc(C)n5)C4)CC3)n2)cc1 (centres unmarked) [Compound 387, 1-(3-(4-methoxyphenyl)-1,2,4-oxadiazol-5-yl)-N-((1-((6-methylpyridin-2-yl)methyl)pyrrolidin-3-yl)methyl)piperidine-4-carboxamide] | ++ (++ ≥5 and <6)
6 | COc1ccc(-c2noc(N3CCC(C(=O)NCC4CCN(Cc5cnc(C)s5)C4)CC3)n2)cc1 (centres unmarked) [Compound 388, 1-(3-(4-methoxyphenyl)-1,2,4-oxadiazol-5-yl)-N-((1-((2-methylthiazol-5-yl)methyl)pyrrolidin-3-yl)methyl)piperidine-4-carboxamide] | ++ (++ ≥5 and <6)
7 | COc1ccc(-c2noc(N3CCC(C(=O)NCC4CCN(Cc5ccc[nH]5)C4)CC3)n2)cc1 (centres unmarked) [Compound 389, N-((1-((1H-pyrrol-2-yl)methyl)pyrrolidin-3-yl)methyl)-1-(3-(4-methoxyphenyl)-1,2,4-oxadiazol-5-yl)piperidine-4-carboxamide] | ++ (++ ≥5 and <6)
8 | COc1ccc(-c2noc(N3CCC(C(=O)NCC4CCN(Cc5cccc(O)c5)C4)CC3)n2)cc1 (centres unmarked) [Compound 390, N-((1-(3-hydroxybenzyl)pyrrolidin-3-yl)methyl)-1-(3-(4-methoxyphenyl)-1,2,4-oxadiazol-5-yl)piperidine-4-carboxamide] | ++ (++ ≥5 and <6)
9 | COc1ccc(-c2noc(N3CCC(C(=O)NCC4CCN(CC5CCCNCC5)C4)CC3)n2)cc1 (centres unmarked) [Compound 391, N-((1-(azepan-4-ylmethyl)pyrrolidin-3-yl)methyl)-1-(3-(4-methoxyphenyl)-1,2,4-oxadiazol-5-yl)piperidine-4-carboxamide] | + (+ >3 and <5)
10 | COc1ccc(-c2noc(N3CCC(C(=O)NCC4CCN(C[C@@H]5CCCN5)C4)CC3)n2)cc1 (stereo partly drawn) [Compound 392, 1-(3-(4-methoxyphenyl)-1,2,4-oxadiazol-5-yl)-N-((1-(((S)-pyrrolidin-2-yl)methyl)pyrrolidin-3-yl)methyl)piperidine-4-carboxamide] | + (+ >3 and <5)
11 | COc1ccc(-c2noc(N3CCC(C(=O)NCC4CCN(CC5CC(F)(F)C5)C4)CC3)n2)cc1 (centres unmarked) [Compound 393, N-((1-((3,3-difluorocyclobutyl)methyl)pyrrolidin-3-yl)methyl)-1-(3-(4-methoxyphenyl)-1,2,4-oxadiazol-5-yl)piperidine-4-carboxamide] | + (+ >3 and <5)
12 | COc1ccc(-c2noc(N3CCC(C(=O)NCC4CCN(CC5CC(N)C5)C4)CC3)n2)cc1 (centres unmarked) [Compound 394, N-((1-(((1s,3s)-3-aminocyclobutyl)methyl)pyrrolidin-3-yl)methyl)-1-(3-(4-methoxyphenyl)-1,2,4-oxadiazol-5-yl)piperidine-4-carboxamide] | + (+ >3 and <5)
13 | COc1ccc(-c2noc(N3CCC(C(=O)NCC4CCN(CC5CCO5)C4)CC3)n2)cc1 (centres unmarked) [Compound 395, 1-(3-(4-methoxyphenyl)-1,2,4-oxadiazol-5-yl)-N-((1-(oxetan-2-ylmethyl)pyrrolidin-3-yl)methyl)piperidine-4-carboxamide] | + (+ >3 and <5)
14 | COc1ccc(-c2noc(N3CCC(C(=O)NCC4CCN(C5CCCOC5)C4)CC3)n2)cc1 (centres unmarked) [Compound 396, 1-(3-(4-methoxyphenyl)-1,2,4-oxadiazol-5-yl)-N-((1-(tetrahydro-2H-pyran-3-yl)pyrrolidin-3-yl)methyl)piperidine-4-carboxamide] | + (+ >3 and <5)
15 | COc1ccc(-c2noc(N3CCC(C(=O)NCC4CCN(C(C)CO)C4)CC3)n2)cc1 (centres unmarked) [Compound 397, N-((1-(1-hydroxypropan-2-yl)pyrrolidin-3-yl)methyl)-1-(3-(4-methoxyphenyl)-1,2,4-oxadiazol-5-yl)piperidine-4-carboxamide] | − (− ≤3)
16 | COc1ccc(-c2noc(N3CCC(C(=O)NCC4CCN(C5CCOCC5)C4)CC3)n2)cc1 (centres unmarked) [Compound 398, 1-(3-(4-methoxyphenyl)-1,2,4-oxadiazol-5-yl)-N-((1-(tetrahydro-2H-pyran-4-yl)pyrrolidin-3-yl)methyl)piperidine-4-carboxamide] | + (+ >3 and <5)
17 | COc1ccc(-c2noc(N3CCC(C(=O)NCC4CCN(C5CC6(COC6)C5)C4)CC3)n2)cc1 (centres unmarked) [Compound 399, N-((1-(2-oxaspiro[3.3]heptan-6-yl)pyrrolidin-3-yl)methyl)-1-(3-(4-methoxyphenyl)-1,2,4-oxadiazol-5-yl)piperidine-4-carboxamide] | + (+ >3 and <5)
18 | COc1ccc(-c2noc(N3CCC(C(=O)NCC4CCN(C5CCCOCC5)C4)CC3)n2)cc1 (centres unmarked) [Compound 400, 1-(3-(4-methoxyphenyl)-1,2,4-oxadiazol-5-yl)-N-((1-(oxepan-4-yl)pyrrolidin-3-yl)methyl)piperidine-4-carboxamide] | + (+ >3 and <5)
19 | COc1ccc(-c2noc(N3CCC(C(=O)NCC4CCN(C5COC5)C4)CC3)n2)cc1 (centres unmarked) [Compound 401, 1-(3-(4-methoxyphenyl)-1,2,4-oxadiazol-5-yl)-N-((1-(oxetan-3-yl)pyrrolidin-3-yl)methyl)piperidine-4-carboxamide] | + (+ >3 and <5)
20 | COc1ccc(-c2noc(N3CCC(C(=O)NCC4CCN(C5CCOC(C)C5)C4)CC3)n2)cc1 (centres unmarked) [Compound 402, 1-(3-(4-methoxyphenyl)-1,2,4-oxadiazol-5-yl)-N-((1-(2-methyltetrahydro-2H-pyran-4-yl)pyrrolidin-3-yl)methyl)piperidine-4-carboxamide] | + (+ >3 and <5)
21 | COc1ccc(-c2noc(N3CCC(C(=O)Nc4ccc5c(c4)CCN5C)CC3)n2)cc1 [Compound 403, 1-(3-(4-methoxyphenyl)-1,2,4-oxadiazol-5-yl)-N-(1-methylindolin-5-yl)piperidine-4-carboxamide] | + (+ >3 and <5)
22 | COc1ccc(-c2noc(N3CCC(C(=O)NCC4CCN(Cc5scnc5C)C4)CC3)n2)cc1 (centres unmarked) [Compound 404, 1-(3-(4-methoxyphenyl)-1,2,4-oxadiazol-5-yl)-N-((1-((4-methylthiazol-5-yl)methyl)pyrrolidin-3-yl)methyl)piperidine-4-carboxamide] | ++ (++ ≥5 and <6)
23 | COc1ccc(-c2noc(N3CCC(C(=O)NCC4CCN(CC5CCCO5)C4)CC3)n2)cc1 (centres unmarked) [Compound 405, 1-(3-(4-methoxyphenyl)-1,2,4-oxadiazol-5-yl)-N-((1-((tetrahydrofuran-2-yl)methyl)pyrrolidin-3-yl)methyl)piperidine-4-carboxamide] | + (+ >3 and <5)
24 | COc1ccc(-c2noc(N3CCC(C(=O)NCC4CCN(Cc5occc5C)C4)CC3)n2)cc1 (centres unmarked) [Compound 406, 1-(3-(4-methoxyphenyl)-1,2,4-oxadiazol-5-yl)-N-((1-((3-methylfuran-2-yl)methyl)pyrrolidin-3-yl)methyl)piperidine-4-carboxamide] | + (+ >3 and <5)
25 | COc1ccc(-c2noc(N3CCC(C(=O)NCC4CCN(Cc5ncc(C)s5)C4)CC3)n2)cc1 (centres unmarked) [Compound 407, 1-(3-(4-methoxyphenyl)-1,2,4-oxadiazol-5-yl)-N-((1-((5-methylthiazol-2-yl)methyl)pyrrolidin-3-yl)methyl)piperidine-4-carboxamide] | ++ (++ ≥5 and <6)
26 | COc1ccc(-c2noc(N3CCC(C(=O)NCC4CCN(CC5COC5)C4)CC3)n2)cc1 (centres unmarked) [Compound 408, 1-(3-(4-methoxyphenyl)-1,2,4-oxadiazol-5-yl)-N-((1-(oxetan-3-ylmethyl)pyrrolidin-3-yl)methyl)piperidine-4-carboxamide] | + (+ >3 and <5)
27 | COc1ccc(-c2noc(N3CCC(C(=O)NCC4CCN(CC5=CCCCC5)C4)CC3)n2)cc1 (centres unmarked) [Compound 409, N-((1-(cyclohex-1-en-1-ylmethyl)pyrrolidin-3-yl)methyl)-1-(3-(4-methoxyphenyl)-1,2,4-oxadiazol-5-yl)piperidine-4-carboxamide] | ++ (++ ≥5 and <6)
28 | COc1ccc(-c2noc(N3CCC(C(=O)NCC4CCN(CC=C(C)C)C4)CC3)n2)cc1 (centres unmarked) [Compound 410, 1-(3-(4-methoxyphenyl)-1,2,4-oxadiazol-5-yl)-N-((1-(3-methylbut-2-en-1-yl)pyrrolidin-3-yl)methyl)piperidine-4-carboxamide] | ++ (++ ≥5 and <6)
29 | COc1ccc(-c2noc(N3CCC(C(=O)NCC4CCN(CCC(C)C)C4)CC3)n2)cc1 (centres unmarked) [Compound 411, N-((1-isopentylpyrrolidin-3-yl)methyl)-1-(3-(4-methoxyphenyl)-1,2,4-oxadiazol-5-yl)piperidine-4-carboxamide] | ++ (++ ≥5 and <6)
